Key:
[1] = test system: colorectal cancer cell line HCT116; experiment: inhibition of proliferation of cancer cell lines (WST-8); type: cell-based; details: Homo sapiens, HCT-116, WST-8, over 24 hours treatment, read-out: IC 50 (proliferation)
Procedure: (§1) To examine inhibition of proliferation of the cell lines, the cancer cell lines HCT 116 (Mecoy's 5A medium), SW620 (RPMI 1640) and MDA-MB-231 (RPMI 1640) were cultured to disperse in a 96 well plate. SW620 and HCT116 were innoculated at a concentration of 7,000 cells/100 μl, and MDA-MB-231 was innoculated at a concentration of 5,000 cells/100 μl, respectively, and cultured overnight, followed by an additional reaction of over 24 hours after treating with 1 μl chromomycin prepared according to the concentration. Next, the resulting cells were added with 10 μl of WST-8, counted with an ELISA reader at 450 nm after 2 hours and calculated as a percentage of comparative control added only with DMSO. Inhibitory concentration (IC50), with respect to proliferation of cell lines MDA-MB -231, HCT116, SW620, was measured within the concentration range from 0 to 1 µg/ml by dissolving chromomycin in DMSO (Table 1).

[2] = test system: colorectal cancer cell line SW620; experiment: as above; type: cell-based; details: Homo sapiens, SW-620, WST-8, over 24 hours treatment, read-out: IC 50 (proliferation)
Procedure: as §1

[3] = test system: breast cancer cell line MDA-MB-231; experiment: as above; type: cell-based; details: Homo sapiens, WST-8, over 24 hours treatment, read-out: IC 50 (proliferation)
Procedure: as §1

[4] = molecular target: T1, binding of caspase3 and xIAP (Homo sapiens, UniProt P98170); experiment: pull down assay using tagged MBP; details: chromomycin increased from 50 μM to 200 μM; MBP resin, SDS PAGE; FIG. 4
T1 construct: made in house; host or cells: E. coli BL21
T1 sequence (P98170 whole entry): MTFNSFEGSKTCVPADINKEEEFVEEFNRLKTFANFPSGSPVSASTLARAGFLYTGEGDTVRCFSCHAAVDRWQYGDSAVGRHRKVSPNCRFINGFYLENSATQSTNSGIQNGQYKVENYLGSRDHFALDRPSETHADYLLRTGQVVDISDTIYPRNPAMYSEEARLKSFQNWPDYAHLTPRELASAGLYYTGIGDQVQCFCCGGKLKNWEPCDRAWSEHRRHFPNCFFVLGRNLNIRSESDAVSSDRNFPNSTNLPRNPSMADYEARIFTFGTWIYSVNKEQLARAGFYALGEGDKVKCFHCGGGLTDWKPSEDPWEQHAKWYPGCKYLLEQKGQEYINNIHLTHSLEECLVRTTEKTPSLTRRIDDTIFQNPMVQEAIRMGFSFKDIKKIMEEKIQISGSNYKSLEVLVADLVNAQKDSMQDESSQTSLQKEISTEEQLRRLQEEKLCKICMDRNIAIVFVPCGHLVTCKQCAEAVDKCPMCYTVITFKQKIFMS
Procedure: In order to examine whether chromomycin, screened in the example 2, is activated by the reaction of caspase3 and xIAP, pull down assay using tagged MBP (Maltose Binding Protein) was performed. After xIAP and chromomyicin were added to MBP resin and allowed to react on ice for 2 hours, the resulting mixture was added with caspase3 and allowed to react for about 3 hours, and then washed with PBS buffer solution to load onto 10% SDS PAGE, thus examining the reactant (FIG. 4).

[5] = molecular target: T2, binding between caspase3 and xIAP (Homo sapiens, UniProt P98170); experiment: protein chip (CI-chip) SPR imaging screening of inhibitors of interaction between caspase3 and xIAP; details: within the range from 50 to 400 μM; FIG. 3
T2 construct: made in house; host or cells: E. coli BL21
T2 sequence (P98170 whole entry): as above
Description: Whether the obtained proteins bind to the gold chip having L-glutathione on the surface thereof, was pre-experimented. After a bacteria cell extract containing 20% glycerol, in which GST-tag-fused cas3 (29) obtained in Example 1-1 has been over-expressed, was dispersed in 384 microwell plate, it was spotted on the gold chip having L-glutathione on the surface thereof with a pin having a diameter of 335 μm under a constant humidity of 75% using automatic robotic arrayer(proteogen, CM-1000), and then subjected to RT shaking incubation for 3 hours, thus constructing Cl-chip having gold chip as a substrate.
Inhibitors of interaction between caspase3 and xIAP were screened using the protein chip based on the gold chip prepared in example 1. 920 microorganism-derived samples, which was purely isolated or partially purified, were reacted with 15 μl solution (3.75 μl of more than 50% glycerol; 3 μl of material dissolved in DMSO at a concentration of less than 10 mg/ml; 7.5 μl of xIAP dissolved in PBS at a concentration of more than 1 mg/ml; 0.75 μl of PBS buffer) at 4° C. for 2 hours to apply to the protein chip. Inhibitory activity was analyzed using SPR imaging as the concentration of protein in solution was increased (FIG. 3).

COC1C(O)CC(OC2CC(Oc3cc4cc5c(c(O)c4c(O)c3C)C(=O)[C@@H](OC3CC(OC4CC(OC6CC(C)(O)C(OC(C)=O)C(C)O6)C(O)C(C)O4)C(O)C(C)O3)[C@H]([C@H](OC)C(=O)[C@@H](O)[C@@H](C)O)C5)OC(C)C2OC(C)=O)OC1C (some centres unmarked) [Chromomycin]
IC50 [1]: 6.7 nM
IC50 [2]: 80 nM
IC50 [3]: 8.4 nM
resulting reactant of xIAP (MX) and caspase3 (Cas3) in pull down assay [4]: reduced
inhibition reaction in the protein chip (SPR imaging) [5]: constant inhibition reaction concentration-dependently

From US20090318376A1, “High Throughput Screening Method of Binding Inhibitor Between caspase3 and XIAP and Binding Inhibitor Screened Thereby” (Korea Research Institute of Bioscience and Biotechnology, priority 2006, published 2009)
